# From US10760110B2, “Antibiotic testing and screening system” (priority 2017, dated 2020)
# Read-outs that look alike come from different tables or passages of the source.
# System: K. pneumoniae NVT1001 strains with ESBL or AmpC β-lactamase plasmids
# Test: Etest MIC of β-lactams, OmpK35/36 loss, ΔramR and/or extended-spectrum β-lactamase and AmpC β-lactamase (Table 8)
# Format: cell-based, Klebsiella pneumoniae
# Conditions: for MIC: Klebsiella pneumoniae
# Procedure: DNA fragments of the resistance genes along with their flanking regions were amplified from clinical plasmids via PCR with specific primer pairs. The resulting PCR fragments were digested and then cloned into the plasmid pACYC177 or pACYC184. The resulting plasmids were then transformed into K. pneumoniae strain NVT1001 via electroporation. The recombinant bacteria were plated onto LB agar plates containing kanamycin (50 mg/L) or chloramphenicol (50 mg/L), and the presence of the cloned gene was confirmed via PCR and DNA sequencing.
# The MICs of antibiotics were determined using the Etest (Biodisk AB, Sweden) according to the manufacturer's instructions. The MICs from the Etest, which fall between standard two-fold dilutions, were rounded up to the next highest two-fold value. The MICs of ceftazidime and cefotaxime against K. pneumoniae NVT1001 harbouring the pACYC177 plasmid with blaOXA-48 were further determined using a broth microdilution test according to the recommendations of the CLSI,^25 and the results were interpreted according to the breakpoints established by the CLSI in 2017.^25 Meanwhile, due to the lack of CLSI breakpoints in 2016 and 2017, the results for cephalothin were interpreted according to the breakpoints established by the CLSI in 2015,^26 and the results for moxifloxacin were interpreted according to the breakpoints established by the EUCAST in 2017.^27
# [1] = CMY-2 on pACYC177, WT (NVT1001), read-out: MIC
# [2] = CMY-2 on pACYC177, Δ35 (ΔompK35 mutant)
# [3] = CMY-2 on pACYC177, Δ35/36 (ΔompK35/36 mutant)
# [4] = CMY-2 on pACYC177, Δ36 (ΔompK36 mutant)
# [5] = CMY-2 on pACYC177, ΔramR mutant
# [6] = CMY-2 on pACYC177, ΔramRΔ35 (ΔramRΔompK35 mutant)
# [7] = CMY-2 on pACYC177, ΔramRΔ35/36 (ΔramRΔompK35/36 mutant)
# [8] = CMY-2 on pACYC177, ΔramRΔ36 (ΔramRΔompK36 mutant)
# [9] = CTX-M-14 on pACYC177, WT (NVT1001), read-out: MIC
# [10] = CTX-M-14 on pACYC177, Δ35 (ΔompK35 mutant)
# [11] = CTX-M-14 on pACYC177, Δ35/36 (ΔompK35/36 mutant)
# [12] = CTX-M-14 on pACYC177, Δ36 (ΔompK36 mutant)
# [13] = CTX-M-14 on pACYC177, ΔramR mutant
# [14] = CTX-M-14 on pACYC177, ΔramRΔ35 (ΔramRΔompK35 mutant)
# [15] = CTX-M-14 on pACYC177, ΔramRΔ35/36 (ΔramRΔompK35/36 mutant)
# [16] = CTX-M-14 on pACYC177, ΔramRΔ36 (ΔramRΔompK36 mutant)
# [17] = CTX-M-15 on pACYC177, WT (NVT1001), read-out: MIC
# [18] = CTX-M-15 on pACYC177, Δ35 (ΔompK35 mutant)
# [19] = CTX-M-15 on pACYC177, Δ35/36 (ΔompK35/36 mutant)
# [20] = CTX-M-15 on pACYC177, Δ36 (ΔompK36 mutant)
# [21] = CTX-M-15 on pACYC177, ΔramR mutant
# [22] = CTX-M-15 on pACYC177, ΔramRΔ35 (ΔramRΔompK35 mutant)
# [23] = CTX-M-15 on pACYC177, ΔramRΔ35/36 (ΔramRΔompK35/36 mutant)
# [24] = CTX-M-15 on pACYC177, ΔramRΔ36 (ΔramRΔompK36 mutant)
# [25] = DHA-1-AmpR on pACYC177, WT (NVT1001), read-out: MIC
# [26] = DHA-1-AmpR on pACYC177, Δ35 (ΔompK35 mutant)
# [27] = DHA-1-AmpR on pACYC177, Δ35/36 (ΔompK35/36 mutant)
# [28] = DHA-1-AmpR on pACYC177, Δ36 (ΔompK36 mutant)
# [29] = DHA-1-AmpR on pACYC177, ΔramR mutant
# [30] = DHA-1-AmpR on pACYC177, ΔramRΔ35 (ΔramRΔompK35 mutant)
# [31] = DHA-1-AmpR on pACYC177, ΔramRΔ35/36 (ΔramRΔompK35/36 mutant)
# [32] = DHA-1-AmpR on pACYC177, ΔramRΔ36 (ΔramRΔompK36 mutant)
# [33] = SHV-12 on pACYC177, WT (NVT1001), read-out: MIC
# [34] = SHV-12 on pACYC177, Δ35 (ΔompK35 mutant)
# [35] = SHV-12 on pACYC177, Δ35/36 (ΔompK35/36 mutant)
# [36] = SHV-12 on pACYC177, Δ36 (ΔompK36 mutant)
# [37] = SHV-12 on pACYC177, ΔramR mutant
# [38] = SHV-12 on pACYC177, ΔramRΔ35 (ΔramRΔompK35 mutant)
# [39] = SHV-12 on pACYC177, ΔramRΔ35/36 (ΔramRΔompK35/36 mutant)
# [40] = SHV-12 on pACYC177, ΔramRΔ36 (ΔramRΔompK36 mutant)
# [41] = no supplemental plasmid, WT (NVT1001), read-out: MIC
# [42] = no supplemental plasmid, Δ35 (ΔompK35 mutant)
# [43] = no supplemental plasmid, Δ35/36 (ΔompK35/36 mutant)
# [44] = no supplemental plasmid, Δ36 (ΔompK36 mutant)
# [45] = no supplemental plasmid, ΔramR mutant
# [46] = no supplemental plasmid, ΔramRΔ35 (ΔramRΔompK35 mutant)
# [47] = no supplemental plasmid, ΔramRΔ35/36 (ΔramRΔompK35/36 mutant)
# [48] = no supplemental plasmid, ΔramRΔ36 (ΔramRΔompK36 mutant)
smiles,measurement,setting,value
CC(=O)OCC1=C(C(=O)O)N2C(=O)[C@@H](NC(=O)Cc3cccs3)[C@H]2SC1 [Cephalothin],MIC,[1],> 256 µg/mL
same,MIC,[2],> 256 µg/mL
same,MIC,[3],> 256 µg/mL
same,MIC,[4],> 256 µg/mL
same,MIC,[5],> 256 µg/mL
same,MIC,[6],> 256 µg/mL
same,MIC,[7],> 256 µg/mL
same,MIC,[8],> 256 µg/mL
same,MIC,[9],> 256 µg/mL
same,MIC,[10],> 256 µg/mL
same,MIC,[11],> 256 µg/mL
same,MIC,[12],> 256 µg/mL
same,MIC,[13],> 256 µg/mL
same,MIC,[14],> 256 µg/mL
same,MIC,[15],> 256 µg/mL
same,MIC,[16],> 256 µg/mL
same,MIC,[17],> 256 µg/mL
same,MIC,[18],> 256 µg/mL
same,MIC,[19],> 256 µg/mL
same,MIC,[20],> 256 µg/mL
same,MIC,[21],> 256 µg/mL
same,MIC,[22],> 256 µg/mL
same,MIC,[23],> 256 µg/mL
same,MIC,[24],> 256 µg/mL
same,MIC,[25],> 256 µg/mL
same,MIC,[26],> 256 µg/mL
same,MIC,[27],> 256 µg/mL
same,MIC,[28],> 256 µg/mL
same,MIC,[29],> 256 µg/mL
same,MIC,[30],> 256 µg/mL
same,MIC,[31],> 256 µg/mL
same,MIC,[32],> 256 µg/mL
same,MIC,[33],> 256 µg/mL
same,MIC,[34],> 256 µg/mL
same,MIC,[35],> 256 µg/mL
same,MIC,[36],> 256 µg/mL
same,MIC,[37],> 256 µg/mL
same,MIC,[38],> 256 µg/mL
same,MIC,[39],> 256 µg/mL
same,MIC,[40],> 256 µg/mL
same,MIC,[41],8 µg/mL
same,MIC,[42],8 µg/mL
same,MIC,[43],256 µg/mL
same,MIC,[44],16 µg/mL
same,MIC,[45],64 µg/mL
same,MIC,[46],64 µg/mL
same,MIC,[47],> 256 µg/mL
same,MIC,[48],> 256 µg/mL
C[C@@H](O)[C@H]1C(=O)N2C(C(=O)O)=C(S[C@@H]3CN[C@H](CNS(N)(=O)=O)C3)[C@H](C)[C@H]12 [Doripenem],MIC,[1],0.25 µg/mL
same,MIC,[2],0.25 µg/mL
same,MIC,[3],8 µg/mL
same,MIC,[4],1 µg/mL
same,MIC,[5],0.125 µg/mL
same,MIC,[6],0.125 µg/mL
same,MIC,[7],4 µg/mL
same,MIC,[8],4 µg/mL
same,MIC,[9],0.125 µg/mL
same,MIC,[10],0.125 µg/mL
same,MIC,[11],1 µg/mL
same,MIC,[12],0.125 µg/mL
same,MIC,[13],0.06 µg/mL
same,MIC,[14],0.06 µg/mL
same,MIC,[15],0.5 µg/mL
same,MIC,[16],0.5 µg/mL
same,MIC,[17],0.125 µg/mL
same,MIC,[18],0.125 µg/mL
same,MIC,[19],4 µg/mL
same,MIC,[20],0.25 µg/mL
same,MIC,[21],0.125 µg/mL
same,MIC,[22],0.125 µg/mL
same,MIC,[23],2 µg/mL
same,MIC,[24],2 µg/mL
same,MIC,[25],0.125 µg/mL
same,MIC,[26],0.125 µg/mL
same,MIC,[27],8 µg/mL
same,MIC,[28],0.25 µg/mL
same,MIC,[29],0.125 µg/mL
same,MIC,[30],0.125 µg/mL
same,MIC,[31],4 µg/mL
same,MIC,[32],4 µg/mL
same,MIC,[33],0.125 µg/mL
same,MIC,[34],0.125 µg/mL
same,MIC,[35],1 µg/mL
same,MIC,[36],0.125 µg/mL
same,MIC,[37],0.06 µg/mL
same,MIC,[38],0.06 µg/mL
same,MIC,[39],0.5 µg/mL
same,MIC,[40],0.5 µg/mL
same,MIC,[41],0.06 µg/mL
same,MIC,[42],0.06 µg/mL
same,MIC,[43],0.125 µg/mL
same,MIC,[44],0.06 µg/mL
same,MIC,[45],0.03 µg/mL
same,MIC,[46],0.03 µg/mL
same,MIC,[47],0.5 µg/mL
same,MIC,[48],0.25 µg/mL
same,effects on the MIC,production of ESBLs tested alone,no significant (≥4-fold) effects
same,effects on the MIC,"strains with ΔramR, with or without ESBLs or AmpC β-lactamases",no significant (≥4-fold) effects
